According to PubChem BioAssay AID1918998 (Molecular Pharmacology Branch, DTP, NCI, 2023):
Several values for one entry are separate records, joined by “and”; a condition that tells them apart may be missing. Equal entries are not always repeated.

Test system: 521955-158-R2-J5-PDC complex spheroid growth
Test: Anticancer human tumor 521955-158-R2-J5-PDC patient-derived pancreatic carcinoma cell line growth inhibition [AhR]
Conditions: for viability, T/C: stronger effect = lower value
In short: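 Complex tumor spheroids co-cultured with HUVEC and human MSC stroma; AhR antagonists tested in combination with standard-of-care and investigational agents. Top concentration at or near clinical Cmax (else 10 microM), half-log dilutions; growth expressed as percent test/control.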

[1] = curve of first compound, second compound 0.1 µM
[2] = curve of first compound, second compound 0.316 µM
[3] = curve of first compound, second compound 1 µM
[4] = curve of first compound, second compound 3.16 µM
[5] = curve of first compound, second compound 10 µM
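Wherever viability, T/C is given: spheroids mix tumor cells with HUVEC endothelium and human MSC stroma; luminescence taken as viability surrogate after a week of drug exposure.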

O=C(C=Cc1cccc(S(=O)(=O)Nc2ccccc2)c1)NO + Cc1cncc(-c2nc(NCCc3c[nH]c4ccccc34)c3ncn(C(C)C)c3n2)c1
IC50 [1]: 5.89 µM
IC50 [2]: 6.86 µM
IC50 [3]: > 10 µM
IC50 [4]: 6.64 µM
IC50 [5]: 1.73 µM
viability, T/C (second compound 0.1 µM, first compound 0.0316 µM): 119%
viability, T/C (second compound 0.1 µM, first compound 0.1 µM): 115%
viability, T/C (second compound 0.1 µM, first compound 0.316 µM): 138%
viability, T/C (second compound 0.1 µM, first compound 1 µM): 93.6%
viability, T/C (second compound 0.1 µM, first compound 3.16 µM): 63.7%
viability, T/C (second compound 0.1 µM, first compound 10 µM): 39.8%
viability, T/C (second compound 0.316 µM, first compound 0.0316 µM): 131%
viability, T/C (second compound 0.316 µM, first compound 0.1 µM): 129%
viability, T/C (second compound 0.316 µM, first compound 0.316 µM): 125%
viability, T/C (second compound 0.316 µM, first compound 1 µM): 101%
viability, T/C (second compound 0.316 µM, first compound 3.16 µM): 66.5%
viability, T/C (second compound 0.316 µM, first compound 10 µM): 42%
viability, T/C (second compound 1 µM, first compound 0.0316 µM): 146%
viability, T/C (second compound 1 µM, first compound 0.1 µM): 132%
viability, T/C (second compound 1 µM, first compound 0.316 µM): 137%
viability, T/C (second compound 1 µM, first compound 1 µM): 108%
viability, T/C (second compound 1 µM, first compound 3.16 µM): 73.6%
viability, T/C (second compound 1 µM, first compound 10 µM): 51.4%
viability, T/C (second compound 3.16 µM, first compound 0.0316 µM): 135%
viability, T/C (second compound 3.16 µM, first compound 0.1 µM): 143%
viability, T/C (second compound 3.16 µM, first compound 0.316 µM): 147%
viability, T/C (second compound 3.16 µM, first compound 1 µM): 106%
viability, T/C (second compound 3.16 µM, first compound 3.16 µM): 61.3%
viability, T/C (second compound 3.16 µM, first compound 10 µM): 43.5%
viability, T/C (second compound 10 µM, first compound 0.0316 µM): 151%
viability, T/C (second compound 10 µM, first compound 0.1 µM): 112%
viability, T/C (second compound 10 µM, first compound 0.316 µM): 108%
viability, T/C (second compound 10 µM, first compound 1 µM): 69.2%
viability, T/C (second compound 10 µM, first compound 3.16 µM): 25.2%
viability, T/C (second compound 10 µM, first compound 10 µM): 5.33%

O=C(C=Cn1cnc(-c2cc(C(F)(F)F)cc(C(F)(F)F)c2)n1)NNc1cnccn1
viability, T/C (compound 0.00949 µM): 73.8% and 59.8% (2×)
viability, T/C (compound 0.03 µM): 59.6% and 58.9% and 58.5%
viability, T/C (compound 0.0949 µM): 50.6% and 38.9% and 40.5%
viability, T/C (compound 0.3 µM): 55.6% and 49.5% and 37.7%
viability, T/C (compound 0.949 µM): 45.3% and 45.9% and 37.6%
viability, T/C (compound 3 µM): 29.1% and 24.8% and 27.1%
IC50 (curve of compound): 0.256 µM and 0.163 µM and 0.0488 µM

O=C(C=Cn1cnc(-c2cc(C(F)(F)F)cc(C(F)(F)F)c2)n1)NNc1cnccn1 + Cc1cncc(-c2nc(NCCc3c[nH]c4ccccc34)c3ncn(C(C)C)c3n2)c1
IC50 [1]: 0.218 µM
IC50 [2]: 0.2 µM
IC50 [3]: 0.251 µM
IC50 [4]: 0.108 µM
IC50 [5]: < 0.00949 µM
viability, T/C (second compound 0.1 µM, first compound 0.00949 µM): 65.6%
viability, T/C (second compound 0.1 µM, first compound 0.03 µM): 59.7%
viability, T/C (second compound 0.1 µM, first compound 0.0949 µM): 53.2%
viability, T/C (second compound 0.1 µM, first compound 0.3 µM): 51.5%
viability, T/C (second compound 0.1 µM, first compound 0.949 µM): 37.1%
viability, T/C (second compound 0.1 µM, first compound 3 µM): 26.3%
viability, T/C (second compound 0.316 µM, first compound 0.00949 µM): 76.1%
viability, T/C (second compound 0.316 µM, first compound 0.03 µM): 58.9%
viability, T/C (second compound 0.316 µM, first compound 0.0949 µM): 57.6%
viability, T/C (second compound 0.316 µM, first compound 0.3 µM): 49.3%
viability, T/C (second compound 0.316 µM, first compound 0.949 µM): 39.6%
viability, T/C (second compound 0.316 µM, first compound 3 µM): 29.1%
viability, T/C (second compound 1 µM, first compound 0.00949 µM): 74.5%
viability, T/C (second compound 1 µM, first compound 0.03 µM): 70%
viability, T/C (second compound 1 µM, first compound 0.0949 µM): 54.5%
viability, T/C (second compound 1 µM, first compound 0.3 µM): 49.4%
viability, T/C (second compound 1 µM, first compound 0.949 µM): 38.9%
viability, T/C (second compound 1 µM, first compound 3 µM): 24.9%
viability, T/C (second compound 3.16 µM, first compound 0.00949 µM): 78.7%
viability, T/C (second compound 3.16 µM, first compound 0.03 µM): 59.1%
viability, T/C (second compound 3.16 µM, first compound 0.0949 µM): 53.2%
viability, T/C (second compound 3.16 µM, first compound 0.3 µM): 36.8%
viability, T/C (second compound 3.16 µM, first compound 0.949 µM): 40.9%
viability, T/C (second compound 3.16 µM, first compound 3 µM): 23.8%
viability, T/C (second compound 10 µM, first compound 0.00949 µM): 38.3%
viability, T/C (second compound 10 µM, first compound 0.03 µM): 35.9%
viability, T/C (second compound 10 µM, first compound 0.0949 µM): 28.2%
viability, T/C (second compound 10 µM, first compound 0.3 µM): 24.7%
viability, T/C (second compound 10 µM, first compound 0.949 µM): 19.7%
viability, T/C (second compound 10 µM, first compound 3 µM): 19.8%
